Experimental data as given in patent publication US11458121B2, “Therapeutic compounds and methods to treat infection” (priority 2017, dated 2022).
≈ marks a conversion by molar mass, not a printed value.

Legend:
E. coli 25922 = experiment: Intrinsic MIC assay (CLSI broth microdilution); type: cell-based, Escherichia coli; details: Escherichia coli, 18 h; E. coli 25922; compound alone, without EPI; read-out: Antibiotic Activity Against E. coli Intrinsic MIC
Text: As used herein, the term “minimum inhibitory concentration (MIC)” refers to the lowest concentration of a compound (e.g., an antibiotic) that prevents visible growth of a bacterium. Assays for measuring the MIC of a compound are known in the art, for example, as described herein. As used herein, the term “intrinsic MIC” refers the MIC of a compound (e.g., an antibiotic) for the particular bacterial species that has not been pre-exposed to the compound. Intrinsic MIC Assays MIC assays were conducted in accordance with Clinical and Laboratory Standards Institute (CLSI) guidelines for broth microdilution. A 96-well plate containing cation-adjusted Mueller-Hinton (CAMH broth with 2-fold serial dilution of compounds was inoculated with log-phase bacterial at 5×10^5 CFU/mL. The final volume in each well was 100 μL. Each compound was tested in duplicate. The microtiter plates were incubated in an aerobic environment for 18 hours at 37° C. Then the bacterial growth was tested by reading the plate with a VersaMax plate reader (Molecular Devices, Inc.) at 600 nm. The MIC was defined as the lowest compound concentration that inhibited 90% of bacteria growth. The intrinsic MIC of the experimental EPIs was tested with the method described. […] The following Gram-negative bacterial strains were included in these assays: Escherichia coli ATCC 25922

P. aeruginosa PAO1 [1] = experiment: Intrinsic MIC assay (CLSI broth microdilution); type: cell-based; details: Pseudomonas aeruginosa, 18 h; P. aeruginosa PAO1; compound alone, without EPI; MIC = lowest concentration inhibiting 90% of growth; read-out: Antibiotic Activity Against P. aeruginosa Intrinsic MIC
Text: As used herein, the term “minimum inhibitory concentration (MIC)” refers to the lowest concentration of a compound (e.g., an antibiotic) that prevents visible growth of a bacterium. Assays for measuring the MIC of a compound are known in the art, for example, as described herein. As used herein, the term “intrinsic MIC” refers the MIC of a compound (e.g., an antibiotic) for the particular bacterial species that has not been pre-exposed to the compound. Intrinsic MIC Assays MIC assays were conducted in accordance with Clinical and Laboratory Standards Institute (CLSI) guidelines for broth microdilution. A 96-well plate containing cation-adjusted Mueller-Hinton (CAMH broth with 2-fold serial dilution of compounds was inoculated with log-phase bacterial at 5×10^5 CFU/mL. The final volume in each well was 100 μL. Each compound was tested in duplicate. The microtiter plates were incubated in an aerobic environment for 18 hours at 37° C. Then the bacterial growth was tested by reading the plate with a VersaMax plate reader (Molecular Devices, Inc.) at 600 nm. The MIC was defined as the lowest compound concentration that inhibited 90% of bacteria growth. The intrinsic MIC of the experimental EPIs was tested with the method described. […] The following Gram-negative bacterial strains were included in these assays: Pseudomonas aeruginosa PAO1

P. aeruginosa PAO1 [2] = experiment: MIC assay in the presence of a bacterial efflux pump inhibitor (EPI); type: cell-based, Pseudomonas aeruginosa; details: P. aeruginosa PAO1; for Enhancement (intrinsic MIC versus MIC with EPI): fold enhancement with 12.5 ug/ml EPI; for Antibiotic Activity Against P. aeruginosa MIC with EPI: with 12.5 ug/ml of EPI (2S,4R)-4-(ammoniomethyl)-2-((6-(4-fluorophenyl)-1H-indole-2-carboxamido)methyl)pyrrolidin-1-ium
Experimental: The ability of a compound to produce an antibiotic effect can be determined using a method as described in Example 42. […] MIC assays were conducted in accordance with Clinical and Laboratory Standards Institute (CLSI) guidelines for broth microdilution. A 96-well plate containing cation-adjusted Mueller-Hinton (CAMH broth with 2-fold serial dilution of compounds was inoculated with log-phase bacterial at 5×10^5 CFU/mL. The final volume in each well was 100 μL. Each compound was tested in duplicate. The microtiter plates were incubated in an aerobic environment for 18 hours at 37° C. Then the bacterial growth was tested by reading the plate with a VersaMax plate reader (Molecular Devices, Inc.) at 600 nm. The MIC was defined as the lowest compound concentration that inhibited 90% of bacteria growth. MIC Assays in the Presence of a Bacterial Efflux Inhibitor The EPI assay for the purposes of these studies represents a MIC assay in which the MIC of the antibiotic against the bacteria is tested in the presence of an experimental efflux pump inhibitor (EPI). The highest concentration of the EPI present in the assay typically is ½ of the intrinsic MIC of the compound. […] Using serial dilutions of the EPI, its enhancement of antibiotic activity was then evaluated. The relative EPI activity was decided by comparing the MIC of the antibiotic in the presence of the EPI compound with the intrinsic MIC of the antibiotic alone. For comparative purposes, we generally used EPIs at concentration of 12.5 and 6.25 μg/ml against varying concentration of our test antibiotic.

SMILES | MIC (E. coli 25922) | MIC (P. aeruginosa PAO1 [1]) | Enhancement (intrinsic MIC versus MIC with EPI) (P. aeruginosa PAO1 [2]) | Antibiotic Activity Against P. aeruginosa MIC with EPI (P. aeruginosa PAO1 [2])
NC1CCCc2c1[nH]c1cc(Br)ccc21 (stereo not drawn) [Example 5a, 7-Bromo-2,3,4,9-tetrahydro-1H-carbazol-1-amine] | 32 µg/mL (≈ 121 µM) | 64 µg/mL (≈ 241 µM) | (64x) | 1 µg/mL
NC1CCCc2c1[nH]c1ccc(F)cc21 (stereo not drawn) [Example 12, 6-Fluoro-2,3,4,9-tetrahydro-1H-carbazol-1-amine] | 64 µg/mL (≈ 313 µM) | 128 µg/mL (≈ 627 µM) | (64x) | 2 µg/mL
NC1CCCc2c1[nH]c1ccc(C(F)(F)F)cc21 (stereo not drawn) [Example 14, 6-(Trifluoromethyl)-2,3,4,9-tetrahydro-1H-carbazol-1-amine] | 64 µg/mL (≈ 252 µM) | 64 µg/mL (≈ 252 µM) | (32x) | 2 µg/mL
NC1CCCc2c1[nH]c1ccc(OC(F)(F)F)cc21 (stereo not drawn) [Example 15, 6-(Trifluoromethoxy)-2,3,4,9-tetrahydro-1H-carbazol-1-amine] | 64 µg/mL (≈ 237 µM) | 128 µg/mL (≈ 474 µM) | (8x) | 16 µg/mL
N#Cc1ccc2[nH]c3c(c2c1)CCCC3N (stereo not drawn) [Example 16, 1-Amino-2,3,4,9-tetrahydro-1H-carb azole-6-carbonitrile] | 256 µg/mL (≈ 1210 µM) | > 256 µg/mL | (>8x) | 32 µg/mL
NC1CCCc2c1[nH]c1c(Br)cccc21 (stereo not drawn) [Example 17, 8-Bromo-2,3,4,9-tetrahydro-1H-carbazol-1-amine] | 64 µg/mL (≈ 241 µM) | > 256 µg/mL | (>2x) | 128 µg/mL
COc1ccc2[nH]c3c(c2c1)CCCC3N.Cl (stereo not drawn) [Example 18, 6-Methoxy-2,3,4,9-tetrahydro-1H-carbazol-1-amine Hydrogen Chloride Salt] | > 256 µg/mL | > 256 µg/mL | (>8x) | 32 µg/mL
NC1CCCc2c1[nH]c1cc(Cl)c(Cl)cc21 (stereo not drawn) [Example 21, 6,7-Dichloro-2,3,4,9-tetrahydro-1H-carbazol-1-amine] | 8 µg/mL (≈ 31.4 µM) | 64 µg/mL (≈ 251 µM) | (16x) | 4 µg/mL
NC1CCCc2c1[nH]c1ccc(Cl)c(Cl)c21 (stereo not drawn) [Example 22, 5,6-Dichloro-2,3,4,9-tetrahydro-1H-carbazol-1-amine] | 4 µg/mL (≈ 15.7 µM) | 32 µg/mL (≈ 125 µM) | (>256x) | <0.125 µg/mL

Second part, the compound after the results:

MIC (E. coli 25922) | MIC (P. aeruginosa PAO1 [1]) | Enhancement (intrinsic MIC versus MIC with EPI) (P. aeruginosa PAO1 [2]) | Antibiotic Activity Against P. aeruginosa MIC with EPI (P. aeruginosa PAO1 [2]) | SMILES
8 µg/mL (≈ 30.2 µM) | 32 µg/mL (≈ 121 µM) | (64x) | 0.5 µg/mL | NC1CCCc2c1[nH]c1ccc(Br)cc21 (stereo not drawn) [Example 1, 6-Bromo-2,3,4,9-tetrahydro-1H-carbazol-1-amine]
16 µg/mL (≈ 57.1 µM) | 256 µg/mL (≈ 913 µM) | (64x) | 4 µg/mL | NC1CCCc2c1[nH]c1ccc(-c3ccc(F)cc3)cc21 (stereo not drawn) [Example 2, 6-(4-Fluorophenyl)-2,3,4,9-tetrahydro-1H-carbazol-1-amine]
32 µg/mL (≈ 109 µM) | > 256 µg/mL | (>16x) | 16 µg/mL | COc1ccc(-c2ccc3[nH]c4c(c3c2)CCCC4N)cc1 (stereo not drawn) [Example 3, 6-(4-Methoxyphenyl)-2,3,4,9-tetrahydro-1H-carbazol-1-amine]
16 µg/mL (≈ 48.4 µM) | > 256 µg/mL | (>64x) | 4 µg/mL | NC1CCCc2c1[nH]c1ccc(-c3ccc(C(F)(F)F)cc3)cc21 (stereo not drawn) [Example 4, 6-(4-(Trifluoromethyl)phenyl)-2,3,4,9-tetrahydro-1H-carbazol-1-amine]
16 µg/mL (≈ 60.3 µM) | 128 µg/mL (≈ 483 µM) | (64x) | 2 µg/mL | NC1CCCc2c1[nH]c1cccc(Br)c21 (stereo not drawn) [Example 5b, 5-Bromo-2,3,4,9-tetrahydro-1H-carbazol-1-amine]
> 256 µg/mL | > 256 µg/mL | (4x) | >64 µg/mL | CC(C)(C)OC(=O)NC1CCCc2c1[nH]c1ccc(Br)cc21 (stereo not drawn) [Example 6, Tert-Butyl (6-bromo-2,3,4,9-tetrahydro-1H-carbazol-1-yl)carbamate]
32 µg/mL (≈ 115 µM) | 256 µg/mL (≈ 917 µM) | (32x) | 8 µg/mL | CNC1CCCc2c1[nH]c1ccc(Br)cc21 (stereo not drawn) [Example 7, 6-Bromo-N-methyl-2,3,4,9-tetrahydro-1H-carbazol-1-amine]
> 256 µg/mL | > 256 µg/mL | (4x) | >64 µg/mL | CC(=O)NC1CCCc2c1[nH]c1ccc(Br)cc21 (stereo not drawn) [Example 8, N-(6-Bromo-2,3,4,9-tetrahydro-1H-carbazol-1-yl)acetamide]
> 256 µg/mL | > 256 µg/mL | (4x) | >64 µg/mL | O=C(NC1CCCc2c1[nH]c1ccc(Br)cc21)c1ccccc1 (stereo not drawn) [Example 9, N-(6-Bromo-2,3,4,9-tetrahydro-1H-carbazol-1-yl)benzamide]
> 256 µg/mL | > 256 µg/mL | (4x) | >64 µg/mL | CC(C)(C)OC(=O)NC1CCCc2c1[nH]c1cc(Br)ccc21 (stereo not drawn) [Example 11, Tert-Butyl (7-bromo-2,3,4,9-tetrahydro-1H-carbazol-1-yl)carbamate]
16 µg/mL (≈ 72.5 µM) | 128 µg/mL (≈ 580 µM) | (16x) | 1 µg/mL | NC1CCCc2c1[nH]c1ccc(Cl)cc21 (stereo not drawn) [Example 13, 6-Chloro-2,3,4,9-tetrahydro-1H-carbazol-1-amine]
64 µg/mL (≈ 229 µM) | 256 µg/mL (≈ 917 µM) | (4x) | 64 µg/mL | Cn1c2c(c3cc(Br)ccc31)CCCC2N (stereo not drawn) [Example 19, 6-Bromo-9-methyl-2,3,4,9-tetrahydro-1H-carbazol-1-amine]
64 µg/mL | > 256 µg/mL | (>8x) | 32 µg/mL | Cl.NC1c2[nH]c3ccc(Br)cc3c2CCC1F (stereo not drawn) [Example 20, 6-Bromo-2-fluoro-2,3,4,9-tetrahydro-1H-carbazol-1-amine Hydrogen Chloride Salt]
32 µg/mL (≈ 99.3 µM) | 32 µg/mL (≈ 99.3 µM) |  |  | NCCCNC1CCCc2c1[nH]c1ccc(Br)cc21 (stereo not drawn) [Example 40, N^1-(6-Bromo-2,3,4,9-tetrahydro-1H-carbazol-1-yl)propane-1,3-diamine]
